Data from patent US12679836B2, “4H-pyrrolo[3,2-c]pyridin-4-one compounds” (Bayer Aktiengesellschaft, priority 2019, dated 2026).
pIC50: −log10 of the molar value. Read-outs that look alike come from different tables or passages of the source.

Experiments:
Bub1 = target: T1, Bub1 (Homo sapiens, UniProt O43683); experiment: Bub1 TR-FRET high ATP kinase assay; assay type: biochemical; conditions: 2 mM ATP
T1 construct: catalytic domain of human Bub1 (amino acids 704-1085); His6 (N); made in house; host or cells: Hi5 insect cells
T1 sequence (O43683 704-1085): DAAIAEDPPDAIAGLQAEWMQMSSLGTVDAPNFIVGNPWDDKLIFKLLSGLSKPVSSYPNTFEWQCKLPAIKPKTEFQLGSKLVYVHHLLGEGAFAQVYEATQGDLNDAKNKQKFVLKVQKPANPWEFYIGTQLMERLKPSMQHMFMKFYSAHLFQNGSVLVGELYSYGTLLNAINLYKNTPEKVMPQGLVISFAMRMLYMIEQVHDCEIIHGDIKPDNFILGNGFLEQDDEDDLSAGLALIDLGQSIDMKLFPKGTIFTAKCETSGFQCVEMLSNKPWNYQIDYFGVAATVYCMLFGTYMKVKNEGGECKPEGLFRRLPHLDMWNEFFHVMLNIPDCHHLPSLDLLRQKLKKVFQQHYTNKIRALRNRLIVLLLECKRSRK
Text: Bub1 High ATP Kinase Assay
Bub1-inhibitory activity of compounds of the present invention at a high ATP concentration was quantified employing the Bub1 TR-FRET high ATP kinase assay as described in the following paragraphs.
N-terminally His6-tagged recombinant catalytic domain of human Bub1 (amino acids 704-1085), expressed in insect cells (Hi5) and purified by Ni-NTA affinity chromatography and subsequent size exclusion chromatography, was used as enzyme. As substrate for the kinase reaction the biotinylated peptide biotin-Ahx-[…]—SEQ ID 7 (C-terminus in amid form) was used which can be purchased e.g. form the company Biosyntan (Berlin, Germany).

Ba/F3-EGFR-WT cells = Ba/F3-EGFR-WT cells (Homo sapiens, UniProt P00533); experiment: Ba/F3 cell survival assay (Cell Titer-Glo), WT EGFR; assay type: cell-based; conditions: without IL-3, with 10 ng/mL EGF, 48 h; read-out: BA/F3 (wild type) IC50
Chain of Ba/F3-EGFR-WT cells (P00533 whole entry, stated change not applied): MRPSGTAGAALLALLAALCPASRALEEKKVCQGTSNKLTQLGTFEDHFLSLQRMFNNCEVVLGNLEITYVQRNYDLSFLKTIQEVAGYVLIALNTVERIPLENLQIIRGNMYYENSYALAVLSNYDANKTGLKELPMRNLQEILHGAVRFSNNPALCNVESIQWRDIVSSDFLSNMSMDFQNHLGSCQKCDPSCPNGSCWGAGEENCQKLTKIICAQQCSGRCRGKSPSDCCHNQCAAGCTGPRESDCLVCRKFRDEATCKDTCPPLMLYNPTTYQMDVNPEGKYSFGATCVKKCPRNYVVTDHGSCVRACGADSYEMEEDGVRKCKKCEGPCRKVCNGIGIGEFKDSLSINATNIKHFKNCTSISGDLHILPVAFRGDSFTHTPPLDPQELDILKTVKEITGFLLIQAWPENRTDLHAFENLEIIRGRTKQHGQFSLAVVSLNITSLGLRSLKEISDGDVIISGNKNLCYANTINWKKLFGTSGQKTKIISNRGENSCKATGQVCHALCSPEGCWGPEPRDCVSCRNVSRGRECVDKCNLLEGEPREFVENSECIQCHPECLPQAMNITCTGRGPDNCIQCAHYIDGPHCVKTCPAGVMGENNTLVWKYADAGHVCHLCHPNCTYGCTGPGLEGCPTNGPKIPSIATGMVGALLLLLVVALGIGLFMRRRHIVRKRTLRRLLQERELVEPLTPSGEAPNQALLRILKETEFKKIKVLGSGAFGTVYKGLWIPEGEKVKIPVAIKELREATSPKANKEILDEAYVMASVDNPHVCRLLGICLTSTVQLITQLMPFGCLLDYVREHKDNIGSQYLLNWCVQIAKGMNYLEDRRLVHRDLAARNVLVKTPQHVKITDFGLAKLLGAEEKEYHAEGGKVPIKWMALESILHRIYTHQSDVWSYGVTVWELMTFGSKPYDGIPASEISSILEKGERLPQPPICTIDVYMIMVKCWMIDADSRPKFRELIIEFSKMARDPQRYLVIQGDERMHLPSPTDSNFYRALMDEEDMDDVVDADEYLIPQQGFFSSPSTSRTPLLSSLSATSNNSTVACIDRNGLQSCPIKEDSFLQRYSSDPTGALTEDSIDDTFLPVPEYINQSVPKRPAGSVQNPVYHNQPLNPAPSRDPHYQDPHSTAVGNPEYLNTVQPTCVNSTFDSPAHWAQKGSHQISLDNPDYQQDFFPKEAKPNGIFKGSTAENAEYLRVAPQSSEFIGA
Experimental: (§1) 293T cells from ATCC were transfected with pBABEpuro expression constructs for WT EGFR or EGFR-insSVD and pCL-Eco packaging vector using Fugene-6 transfection reagent from Promega. Plates were incubated at 37° C. for 48 h. Retrovirus was harvested by filtering the media supernatant through a 0.45 μm filter.
(§2) Ba/F3 cells purchased from DSMZ were grown in RPMI+10% FBS+10 ng/mL IL-3 and infected with filtered retroviral supernatant at a 1:2 dilution. Polybrene was added to a concentration of 8 μg/mL, plates were spun for 90 min, and incubated overnight at 37° C. 2 μg/mL puromycin was added to the infected cells 24 h after infection and cells were continually grown in the presence of puromycin and 10 ng/mL IL-3. Following stably expressing Ba/F3 cell lines were generated: Ba/F3-EGFR-WT, Ba/F3-EGFR-insSVD, (Ba/F3-vector-control).
(§3) For cell survival assays, Ba/F3 cells were grown to a density of 1-2 million cells per mL, spun down and resuspended in media without IL-3, and replated at a concentration 200,000-500,000 cells per mL. The cells ectopically expressing WT EGFR or EGFR-insSVD were plated with 10 ng/mL Millipore Culture grade EGF. The cells ectopically expressing pBABEpuro empty vector were plated with 10 ng/mL IL-3. 2 days later, cells were plated in 50 μL in a 384 well plate at a concentration of 4000 cells per well for cells assayed in the absence of IL-3 and 2000 cells per well for cells assayed in the presence of IL-3. 100 nL of compound was added to each well using a 100 nL pin head, and plates were incubated at 37° C. for 48 h.
(§4) Cell viability was measured by adding 20 μL of Cell Titer-Glo Luminescent Cell Viability Reagent diluted 1:3 in PBS. Plates were sealed with Perkin Elmer Top-Seal, inverted several times to mix, and immediately centrifuged at 1000 rpm for 2 min. Plates were incubated in low light conditions for 8-10 min and luminescence was measured.

Ba/F3-EGFR-insSVD cells = Ba/F3-EGFR-insSVD cells (Homo sapiens, UniProt P00533, DUP768-770, cells depend on it); experiment: Ba/F3 cell survival assay (Cell Titer-Glo), EGFR-insSVD; assay type: cell-based; conditions: without IL-3, with 10 ng/mL EGF, 48 h; read-out: BA/F3 (insSVD) IC50
Chain of Ba/F3-EGFR-insSVD cells (P00533 with tags, fused parts or gaps DUP768-770): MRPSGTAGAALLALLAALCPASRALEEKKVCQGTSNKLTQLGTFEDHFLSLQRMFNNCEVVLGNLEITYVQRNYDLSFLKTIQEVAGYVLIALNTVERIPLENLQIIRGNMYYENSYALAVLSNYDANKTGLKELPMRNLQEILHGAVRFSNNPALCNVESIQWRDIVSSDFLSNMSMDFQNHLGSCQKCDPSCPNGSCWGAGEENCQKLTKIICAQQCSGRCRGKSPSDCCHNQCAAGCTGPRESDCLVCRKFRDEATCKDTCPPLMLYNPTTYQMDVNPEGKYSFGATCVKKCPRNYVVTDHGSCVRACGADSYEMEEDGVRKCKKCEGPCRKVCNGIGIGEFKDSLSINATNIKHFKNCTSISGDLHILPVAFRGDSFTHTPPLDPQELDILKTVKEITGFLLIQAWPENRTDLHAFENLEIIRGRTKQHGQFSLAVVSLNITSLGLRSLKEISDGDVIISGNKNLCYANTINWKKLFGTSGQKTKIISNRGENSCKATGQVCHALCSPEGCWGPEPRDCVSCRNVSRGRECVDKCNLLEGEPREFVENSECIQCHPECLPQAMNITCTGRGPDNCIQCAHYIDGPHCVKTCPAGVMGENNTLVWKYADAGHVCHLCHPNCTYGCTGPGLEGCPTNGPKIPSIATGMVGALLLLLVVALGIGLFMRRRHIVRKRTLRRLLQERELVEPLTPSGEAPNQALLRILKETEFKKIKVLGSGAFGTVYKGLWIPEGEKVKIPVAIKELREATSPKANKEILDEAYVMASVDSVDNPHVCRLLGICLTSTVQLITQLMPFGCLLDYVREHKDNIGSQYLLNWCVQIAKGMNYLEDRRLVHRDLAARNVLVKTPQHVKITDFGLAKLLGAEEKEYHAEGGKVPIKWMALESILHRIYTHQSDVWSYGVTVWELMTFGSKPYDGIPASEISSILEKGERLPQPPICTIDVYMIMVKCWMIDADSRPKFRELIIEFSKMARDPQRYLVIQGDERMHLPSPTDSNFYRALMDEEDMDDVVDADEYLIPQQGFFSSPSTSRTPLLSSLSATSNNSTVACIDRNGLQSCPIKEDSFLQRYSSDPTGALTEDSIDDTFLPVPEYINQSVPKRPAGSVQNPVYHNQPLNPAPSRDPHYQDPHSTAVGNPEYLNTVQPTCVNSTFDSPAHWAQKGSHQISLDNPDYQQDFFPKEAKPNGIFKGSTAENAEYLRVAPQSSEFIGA
Experimental: as §1, §2, §3, §4

[1] = target: T2, EGFR with insertion of SVD between D770 and N771 (EGFR ins SVD) (Homo sapiens, UniProt P00533, DUP768-770); experiment: Exon20-Mutant-EGFR(D770_N771insSVD) kinase assay (TR-FRET); assay type: biochemical; conditions: 2 mM ATP, several values per example where printed
T2 construct: made in house; host or cells: Sf9 insect cells (baculovirus)
T2 sequence (P00533 with tags, fused parts or gaps DUP768-770): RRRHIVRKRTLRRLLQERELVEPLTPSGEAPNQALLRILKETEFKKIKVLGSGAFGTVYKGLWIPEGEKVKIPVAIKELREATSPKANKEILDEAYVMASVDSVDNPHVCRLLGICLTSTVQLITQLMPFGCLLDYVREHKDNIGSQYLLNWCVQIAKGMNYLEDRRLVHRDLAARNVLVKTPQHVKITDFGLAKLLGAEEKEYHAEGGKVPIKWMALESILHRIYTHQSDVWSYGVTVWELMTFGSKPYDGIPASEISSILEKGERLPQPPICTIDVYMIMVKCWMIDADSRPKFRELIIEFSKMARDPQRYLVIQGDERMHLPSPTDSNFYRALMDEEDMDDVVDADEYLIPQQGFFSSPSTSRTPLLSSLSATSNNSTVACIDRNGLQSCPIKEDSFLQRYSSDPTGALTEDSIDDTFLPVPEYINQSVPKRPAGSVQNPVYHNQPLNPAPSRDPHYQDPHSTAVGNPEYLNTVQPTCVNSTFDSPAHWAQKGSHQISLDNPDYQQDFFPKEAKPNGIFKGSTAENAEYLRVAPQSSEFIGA

[2] = Bub1 high ATP (2 mM) IC50 [mol/l]
[3] = read-out: Bub1 high ATP (2 mM) IC50 [mol/l]

| SMILES | pIC50 (Bub1; [2]) | mutEGFR (D770_N771insSVD) kinase assay IC50 [1] | pIC50 (Bub1; [3]) | GI50 (Ba/F3-EGFR-WT cells) | GI50 (Ba/F3-EGFR-insSVD cells) |
| --- | --- | --- | --- | --- | --- |
| COc1c(F)cccc1Nc1c(-c2ccncc2OCC2CN(C)CCO2)[nH]c2c1C(=O)NCC2 (stereo not drawn) [Example 12, 3-(3-fluoro-2-methoxyanilino)-2-{3-[(4-methylmorpholin-2-yl)methoxy]pyridin-4-yl}-1,5,6,7-tetrahydro-4H-pyrrolo[3,2-c]pyridin-4-one] | < 4.70 | 0.0794 nM |  | 574 nM | 22.8 nM |
| Cc1c(F)cccc1Nc1c(-c2ccncc2OCC2CN(C)CCO2)[nH]c2c1C(=O)NCC2 (stereo not drawn) [Example 62, 3-(3-fluoro-2-methylanilino)-2-(3-{[4-methylmorpholin-2-yl]methoxy}pyridin-4-yl)-1,5,6,7-tetrahydro-4H-pyrrolo[3,2-c]pyridin-4-one] | < 4.70 | 0.237 nM |  | 697 nM | 26.7 nM |
| COc1c(F)cccc1Nc1c(-c2ccncc2OCC2COC(C)(C)CO2)[nH]c2c1C(=O)NCC2 (single isomer, unassigned) [Example 34, 2-(3-{[5,5-dimethyl-1,4-dioxan-2-yl]methoxy}pyridin-4-yl)-3-(3-fluoro-2-methoxyanilino)-1,5,6,7-tetrahydro-4H-pyrrolo[3,2-c]pyridin-4-one] |  | 0.193 nM | < 4.70 | 204 nM | 12 nM |
| CN1CCO[C@H](COc2cnccc2-c2[nH]c3c(c2Nc2cccc(F)c2CC(F)F)C(=O)NCC3)C1 [Example 41, 3-[2-(2,2-difluoroethyl)-3-fluoroanilino]-2-(3-{[(2S)-4-methylmorpholin-2-yl]methoxy}pyridin-4-yl)-1,5,6,7-tetrahydro-4H-pyrrolo[3,2-c]pyridin-4-one] | < 4.70 | 0.291 nM |  | 695 nM | 77.5 nM |
| COc1c(Cl)cccc1Nc1c(-c2ccncc2O[C@H](C)C2COCCO2)[nH]c2c1C(=O)NCC2 (single isomer, unassigned) [Example 61] |  | 0.935 nM |  | 3770 nM | 300 nM |
| Cc1c(Cl)cccc1Nc1c(-c2ccncc2OCC2COC(C)(C)CO2)[nH]c2c1C(=O)NCC2 (stereo not drawn) [Example 44, 3-(3-chloro-2-methyl-anilino)-2-[3-[(5,5-dimethyl-1,4-dioxan-2-yl)methoxy]-4-pyridyl]-1,5,6,7-tetrahydropyrrolo[3,2-c]pyridin-4-one] |  | 0.15 nM |  |  | 25.7 nM |
| Cc1c(F)cccc1Nc1c(-c2ccncc2OCC2COC(C)(C)CO2)[nH]c2c1C(=O)NCC2 (stereo not drawn) [Example 38, 2-[3-[(5,5-dimethyl-1,4-dioxan-2-yl)methoxy]-4-pyridyl]-3-(3-fluoro-2-methyl-anilino)-1,5,6,7-tetrahydropyrrolo[3,2-c]pyridin-4-one] | < 5.24 | 0.119 nM |  | 419 nM | 29.3 nM |
| COc1c(F)cccc1Nc1c(-c2ccncc2OCC2CN(C)CCO2)[nH]c2c1C(=O)NCC2 (single isomer, unassigned) [Example 13, 3-(3-fluoro-2-methoxyanilino)-2-{3-[(4-methylmorpholin-2-yl)methoxy]pyridin-4-yl}-1,5,6,7-tetrahydro-4H-pyrrolo[3,2-c]pyridin-4-one] | < 4.70 | 0.139 nM |  | 1520 nM |  |
| COc1c(F)cccc1Nc1c(-c2ccncc2OCCC2COCCO2)[nH]c2c1C(=O)NCC2 (single isomer, unassigned) [Example 36, 2-(3-{2-[1,4-dioxan-2-yl]ethoxy}pyridin-4-yl)-3-(3-fluoro-2-methoxyanilino)-1,5,6,7-tetrahydro-4H-pyrrolo[3,2-c]pyridin-4-one] | 5.55 |  |  | 845 nM | 68.1 nM |
| COc1c(Cl)cccc1Nc1c(-c2ccncc2O[C@@H](C)C2COCCO2)[nH]c2c1C(=O)NCC2 (single isomer, unassigned) [Example 58, 3-(3-chloro-2-methoxyanilino)-2-{3-[(1 S)-1-(1,4-dioxan-2-yl)ethoxy]pyridin-4-yl}-1,5,6,7-tetrahydro-4H-pyrrolo[3,2-c]pyridin-4-one] | 4.86 |  |  | 519 nM | 29.8 nM |
| Cc1c(Cl)cccc1Nc1c(-c2ccncc2OCC2COC(C)(C)CO2)[nH]c2c1C(=O)NCC2 (single isomer, unassigned) [Example 45, 3-(3-chloro-2-methyl-anilino)-2-[3-[(5,5-dimethyl-1,4-dioxan-2-yl)methoxy]-4-pyridyl]-1,5,6,7-tetrahydropyrrolo[3,2-c]pyridin-4-one] | < 5.24 | 0.492 nM |  | 1640 nM |  |

More lines, main results first:

| pIC50 (Bub1; [2]) | mutEGFR (D770_N771insSVD) kinase assay IC50 [1] | pIC50 (Bub1; [3]) | SMILES | GI50 (Ba/F3-EGFR-WT cells) | GI50 (Ba/F3-EGFR-insSVD cells) |
| --- | --- | --- | --- | --- | --- |
| 5.48 | 0.137 nM |  | COc1c(Cl)cccc1Nc1c(-c2ccncc2OC[C@H]2COCCO2)[nH]c2c1C(=O)NCC2 (single isomer, unassigned) [Example 3] | 755 nM | 22.8 nM |
| < 4.70 |  |  | COc1c(Cl)cccc1Nc1c(-c2ccncc2OCC2COC(C)(C)CO2)[nH]c2c1C(=O)NCC2 (stereo not drawn) [Example 30, 3-(3-chloro-2-methoxyanilino)-2-{3-[(5,5-dimethyl-1,4-dioxan-2-yl)methoxy]pyridin-4-yl}-1,5,6,7-tetrahydro-4H-pyrrolo[3,2-c]pyridin-4-one] | 407 nM | 19.3 nM |
| 4.95 | 0.256 nM |  | COc1c(F)cccc1Nc1c(-c2ccncc2OCC2COCCO2)[nH]c2c1C(=O)NCC2 (stereo not drawn) [Example 4, 2-{3-[(1,4-dioxan-2-yl)methoxy]pyridin-4-yl}-3-(3-fluoro-2-methoxyanilino)-1,5,6,7-tetrahydro-4H-pyrrolo[3,2-c]pyridin-4-one] | 452 nM | 19.5 nM |
| 6.00 | 0.571 nM |  | CCc1c(Cl)cccc1Nc1c(-c2ccncc2OC[C@H]2COCCO2)[nH]c2c1C(=O)NCC2 (single isomer, unassigned) [Example 54] | 917 nM | 80.9 nM |
|  | 0.156 nM | < 4.70 | COc1c(Cl)cccc1Nc1c(-c2ccncc2OCC2CN(C)CCO2)[nH]c2c1C(=O)NCC2 (single isomer, unassigned) [Example 17, 3-(3-chloro-2-methoxyanilino)-2-(3-{[4-methylmorpholin-2-yl]methoxy}pyridin-4-yl)-1,5,6,7-tetrahydro-4H-pyrrolo[3,2-c]pyridin-4-one] | 231 nM | 9.53 nM |
|  | 0.133 nM |  | COc1c(Cl)cccc1Nc1c(-c2ccncc2OCC2COC(C)(C)CO2)[nH]c2c1C(=O)NCC2 (single isomer, unassigned) [Example 31, 3-(3-chloro-2-methoxyanilino)-2-{3-[(5,5-dimethyl-1,4-dioxan-2-yl)methoxy]pyridin-4-yl}-1,5,6,7-tetrahydro-4H-pyrrolo[3,2-c]pyridin-4-one] |  |  |
| 5.30 |  |  | Cc1c(F)cccc1Nc1c(-c2ccncc2OCC2COCCO2)[nH]c2c1C(=O)NCC2 (stereo not drawn) [Example 47, 2-[3-(1,4-dioxan-2-ylmethoxy)-4-pyridyl]-3-(3-fluoro-2-methyl-anilino)-1,5,6,7-tetrahydropyrrolo[3,2-c]pyridin-4-one] | 715 nM | 41.6 nM |
